Key:
[1] = test system: TCR NYN-1 (Jurkat E6-1 TPR cells); format: cell-based, human
[2] = test system: TCR NYN-4 (Jurkat E6-1 TPR cells); test: Jurkat E6-1 TPR NFAT-eGFP reporter activation, transgenic TCR NYN-4, peptide-loaded K562-A*24:02; format: cell-based, human
TCR^NYN-I = conditions: ref 20 (Deng et al.); cited from earlier work
TCR^NYN-II = conditions: ref 20 (Deng et al.); cited from earlier work
[3] = test system: TCR NYN-2 (Jurkat E6-1 TPR cells); format: cell-based, human
[4] = test system: TCR NYN-3 (Jurkat E6-1 TPR cells); format: cell-based, human
[5] = test system: NYN peptide-specific TCRs (NYN-1 to NYN-4 Jurkat E6-1 TPR cell lines); format: cell-based, human

Q: Which results are given for NYKYLYRLF [N450K]?
A: effect of the mutation on response / affinity of NYN-1 (in words) [1]: remained preserved; reduction in the recognition compared to wild-type NYN ([2]; TCR NYN-4, from EC50 values): up to 400 fold; recognition / response of TCR^NYN-I (in words) (TCR^NYN-I): remained preserved; recognition / response of TCR^NYN-II (in words) (TCR^NYN-II): remained preserved

Q: What does the source list for NYDYLYRLF [N450D]?
A: effect of the mutation on response / affinity of NYN-2 (in words) [3]: increased the affinity; effect of the mutation on response / affinity of NYN-3 (in words) [4]: increased the affinity; effect of the mutation on the T-cell response / recognition (in words) [5]: did not affect the T-cell response

Q: Which “GFP expression compared to NYN” value ([1]; NYN-1 cell line, K562 loaded with 0.8 μM peptide) does the source give for VYFLQSINF here?
A: the same level of GFP expression as NYN

Q: And the “GFP expression compared to NYN” value ([3]; NYN-2 cell line, K562 loaded with 0.8 μM peptide)?
A: the same level of GFP expression as NYN

Q: What about the “GFP expression compared to NYN” value ([4]; NYN-3 cell line, K562 loaded with 0.8 μM peptide) of the same sequence?
A: 1.5 times lower

Q: What about the “GFP expression compared to NYN” value ([2]; NYN-4 cell line, K562 loaded with 0.8 μM peptide) of the same sequence?
A: 1.5 times lower

Q: What about the “recognition by all NYN-specific TCRs (cross-reactivity)” value ([5]; K562 loaded with 0.8 μM of each epitope) of the same sequence?
A: recognized

Q: Which “reduction in the recognition compared to wild-type NYN” value ([3]; TCR NYN-2, from EC50 values) does the source give for NYNYLYRFF [L455F] here?
A: 23 fold

Q: What about the “effect of the mutation on the T-cell response / recognition (in words)” value [5] of the same sequence?
A: did not affect the T-cell response

Q: For NYNYLYRLL [F456L], which “effect of the mutation on the T-cell response / recognition (in words)” value [5] is on record?
A: did not affect the T-cell response

Q: For NYNYMYRLF [L452M], which “effect of the mutation on the T-cell response / recognition (in words)” value [5] is on record?
A: did not affect the T-cell response
